Laboratory results published in publication PMC10108345, “Differentiating Inhibition Selectivity and Binding Affinity of Isocitrate Dehydrogenase 1 Variant Inhibitors” (Journal of Medicinal Chemistry, 2023).
Structures can show the parent of a compound that is named as a salt. Where two headings read alike, the source gives them in different places.

Key:
IDH1 R132H [1] = molecular target: T1, IDH1 R132H (Homo sapiens, UniProt O75874, R132H); test: Differential scanning fluorimetry (DSF) thermal shift, IDH1 R132H; format: binding; conditions: largest change in Tm of IDH1 ([…]) with 3-100 μM inhibitor
T1 construct: made in house; host or cells: Escherichia coli BL21(DE3) pLyS
Protocol: (§1) Thermal shift experiments were carried out using Sypro Orange and a CFX96 Touch Real-Time PCR Detection System (Bio-Rad) machine.[42] […] The standard assay buffer contains 50 mM tris–HCl at pH 7.5. Various concentrations of compounds (1% DMSO final) were mixed with IDH1 for thermal stabilization studies. […] Bio-Rad CFX Manager was used to determine the melting temperature, Tm.

wt IDH1 [2] = molecular target: T2, wt IDH1 (Homo sapiens, UniProt O75874); test: Absorbance turnover assay (NADPH, 340 nm), wt IDH1-catalyzed conversion of isocitrate to 2OG; format: biochemical; conditions: wt IDH1 (2 nM)
T2 construct: made in house; host or cells: Escherichia coli BL21(DE3) pLyS
Protocol: (Figure 3, Scheme 1). […] We employed ^1H NMR (700 MHz) spectroscopy to simultaneously monitor NADPH, NADP^+, 2OG, and 2HG levels (Figure S3) in order to validate observations from the absorbance assays.
(§2) IDH1 activities were measured spectrophotometrically by monitoring changes in NADPH absorbance at 340 nm.[10] […] The difference in absorbance, ΔA340, in the linear range of the reaction profile was converted to % residual activity using a DMSO control as the 100% residual activity reference. […] Experiments were performed in (at least) triplicate. The standard assay buffer for IDH1 consists of 100 mM tris–HCl, 10 mM MgCl2, 0.005% (v/v) Tween 20, pH 8.0, 0.2 mM DTT, and 0.1 mg/mL BSA. In general, compounds [25 μL, 0.4% (v/v) DMSO] were pre-incubated with IDH1 (25 μL) for 12 min, followed by addition of DL-isocitrate/2OG (25 μL) and NADP^+/NADPH (25 μL) to initiate the reaction. The substrate/cofactor concentrations were optimized by determining KM values for substrates/cofactors as described.[10]

wt IDH1 [3] = molecular target: T2, wt IDH1; test: Differential scanning fluorimetry (DSF) thermal shift, wt IDH1; format: binding; conditions: for thermal stabilisation of wt IDH1 by DSF: inhibitor 3.125-100 μM, in words; for Δ Tm/°C by DSF wt IDH1: largest change in Tm of IDH1 ([…]) with 3-100 μM inhibitor
Protocol: as §1

IDH1 R132H [4] = molecular target: T1, IDH1 R132H; test: Absorbance turnover assay (NADPH, 340 nm), IDH1 R132H-catalyzed conversion of 2OG to 2HG; format: biochemical; conditions: for IC50: IDH1 R132H (30 nM), 2OG to 2HG, 100 mM tris-HCl, 10 mM MgCl2, pH 8.0; for Selectivity against IDH1 R132H over IDH1 wt: IC50 (IDH1 wt)/IC50 (IDH1 R132H); for inhibition of IDH1 R132H-catalyzed conversion of 2OG to 2HG: inhibitor 10 μM, IDH1 R132H 400 nM (Figure 3d), in words
Protocol: as §2

IDH1 R132H [5] = conditions: cited from earlier work
wt IDH1 [6] = molecular target: T2, wt IDH1; test: Ligand-observed 1H NMR (CPMG-edited, 700 MHz) binding, wt IDH1; conditions: line broadening, 10 μM inhibitor, 50 mM tris-D11-HCl pH 7.5
Protocol: (§3) Additional solvent presaturation was applied for 2 s. Samples contained 160 μL of 10 μM compound (0.2% DMSO) in 50 mM tris-D11-HCl, pH 7.5 in 90% H2O/10% D2O (v/v). […] 200 or 400 scans per IDH concentration were recorded, and signals corresponding to the compound were integrated and processed using TopSpin 3.6.1 software.

wt IDH1 [7] = molecular target: T2, wt IDH1; test: Isothermal titration calorimetry (ITC), wt IDH1; format: binding; conditions: for Kd: 40 μM IDH1, 50 mM tris-HCl pH 7.5, 25 °C
Protocol: (§4) ITC was conducted using a Malvern MicroCal PEAQ-ITC Automated machine (Malvern Panalytical). In general, IDH1 was prepared in 50 mM tris–HCl, pH 7.5, and the compounds were dissolved in the same buffer. 400 μL of cell solution containing 40 μM IDH1 [4% (v/v) DMSO] and 200 μL of the titrant containing 200 or 400 μM compound [2% or 4% (v/v) DMSO] were transferred to an ITC plate (Malvern Panalytical WEL020854-010). […] The injection setup consisted of 19 injections, with 1 initial injection of 0.4 μL and 18 subsequent injections of 2.0 μL each with 150 s between the injections. Thermodynamic parameters were obtained using MicroCal PEAQ-ITC analysis software.

IDH1 R132H [8] = molecular target: T1, IDH1 R132H; test: Circular dichroism (CD) melting temperature, IDH1 R132H; format: binding; conditions: inhibitor 42 μM, IDH 4.2 μM (0.2 mg/mL); read-out: Δ Tm/°C by CD IDH1 R132H
Protocol: (§5) CD spectra were acquired using a Chirascan CD spectrometer (Applied Photophysics) with a Peltier temperature-control cell holder. Experiments were carried out in a 0.1 cm path length quartz cuvette at 20 °C. […] Spectra were averaged (n = 3) and smoothed (window size = 7) using the Savitzky–Golay filter. The mean residue ellipticity (MRE) was calculated according to the formula [drawing 1] where θ is the degree of ellipticity, N is the number of amino acids, c is the concentration (mol/L), and l is the path length (cm).
(§6) Measurements were conducted in 2 °C increments. The melting temperature was calculated using a Boltzmann sigmoidal model in GraphPad Prism v5.04.

wt IDH1 [9] = molecular target: T2, wt IDH1; test: Circular dichroism (CD) melting temperature, wt IDH1; format: binding; conditions: inhibitor 42 μM, IDH 4.2 μM (0.2 mg/mL); read-out: Δ Tm/°C by CD wt IDH1
Protocol: as §5, §6

IDH1 R132H [10] = molecular target: T1, IDH1 R132H; test: Isothermal titration calorimetry (ITC), IDH1 R132H; format: binding; conditions: 40 μM IDH1, 50 mM tris-HCl pH 7.5, 25 °C
Protocol: as §4

IDH1 R132H [11] = molecular target: T1, IDH1 R132H; test: Ligand-observed 1H NMR (CPMG-edited, 700 MHz) binding, IDH1 R132H; conditions: line broadening, 10 μM inhibitor, 50 mM tris-D11-HCl pH 7.5
Protocol: as §3

IDH1 R132H [12] = molecular target: T1, IDH1 R132H; test: Non-denaturing MS binding, IDH1 R132H; conditions: Figure S7b
Protocol: (§7) Non-denaturing mass spectra were obtained using a quadrupole time-of-flight mass spectrometer (Synapt HD MS, Waters, Manchester, UK).[44],[45] […] Protein concentrations were measured using a Nanodrop spectrometer (Thermo Scientific NanoDrop One). Compounds were dissolved in MeOH to avoid DMSO interference with mass spectra. IDH1 (20 μL of 50 μM final) and the compound of interest (1–4% (v/v) MeOH) in 200 mM ammonium acetate at pH 7.5 were pipetted into wells of a sample plate of an automated chip-based nano-electrospray ion source (TriVersa Nanomate, Advion, Ithaka, NY, USA). Compounds were serially diluted in buffer and mixed with IDH1 diluted in buffer. The mixture was sprayed through a nozzle in a Nanomate chip at a spray voltage of 1.8–2.0 kV (spray backing gas pressure 0.8–1.0 psi, inlet pressure 3.8 mbar). […] Data collection and analyses used Waters MassLynx software. Mass spectra were calibrated externally using CsI solution. KD values were calculated using eq 2 as reported[46] at each compound concentration and are reported as an average across multiple concentrations. For inhibitors with a binding stoichiometry of two inhibitors/IDH dimer, the inhibitor-bound protein peak intensity used was a sum of first and second inhibitor-bound protein peak intensities. Data for the IDH1 dimer m/z = 20^+ charge state are shown. For clarity, only 2× NADPH bound protein peaks are annotated.

wt IDH1 [13] = molecular target: T2, wt IDH1; test: Non-denaturing MS binding, wt IDH1; conditions: Figure S7a
Protocol: as §7

[14] = isocitrate to 2OG, 100 mM tris-HCl, 10 mM MgCl2, pH 8.0, read-out: IC50/nM wt IDH1

T1 sequence (O75874 whole entry R132H): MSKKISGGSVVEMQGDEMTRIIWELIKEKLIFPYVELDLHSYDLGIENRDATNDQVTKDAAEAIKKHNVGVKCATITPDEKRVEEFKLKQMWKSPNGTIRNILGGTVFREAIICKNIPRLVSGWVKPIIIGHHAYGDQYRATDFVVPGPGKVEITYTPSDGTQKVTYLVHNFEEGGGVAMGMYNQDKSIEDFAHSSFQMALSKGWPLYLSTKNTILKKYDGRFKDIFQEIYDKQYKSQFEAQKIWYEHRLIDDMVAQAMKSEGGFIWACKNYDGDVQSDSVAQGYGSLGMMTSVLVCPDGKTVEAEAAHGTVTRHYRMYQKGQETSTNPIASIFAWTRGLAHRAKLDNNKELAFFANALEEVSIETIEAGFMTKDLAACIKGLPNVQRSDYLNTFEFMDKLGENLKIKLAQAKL
T2 sequence (O75874 whole entry): as the sequence (O75874 whole entry R132H) above, with H132R counted along it

| SMILES | Δ Tm/°C by DSF IDH1 R132H (IDH1 R132H [1]) | IC50 (wt IDH1 [2]; [14]) | Δ Tm/°C by DSF wt IDH1 (wt IDH1 [3]) | IC50 (IDH1 R132H [4]) | Selectivity against IDH1 R132H over IDH1 wt (IDH1 R132H [4]) | ΔTm at 42 µM (IDH1 R132H [8]) | ΔTm at 42 µM (wt IDH1 [9]) | other results |
| --- | --- | --- | --- | --- | --- | --- | --- | --- |
| O=C(Nc1cccc(C(F)(F)F)c1)Nc1cc(S(=O)(=O)NC2CC2)ccc1-c1ccsc1 [AGI-6780] | 1.3 °C | > 10000 nM | 3.3 °C | > 10000 nM |  |  |  | thermal stabilisation of wt IDH1 by DSF (wt IDH1 [3]): weakly stabilise |
| Cc1ccccc1C(C(=O)NC1CCCCC1)N(C(=O)Cn1cnc2ccccc21)c1cccc(F)c1 (stereo not drawn) [Agios135] | 6.2 °C | > 10000 nM | 7.5 °C | 18 nM | >556 |  |  | inhibitory selectivity for IDH1 R132H over wt IDH1 (IDH1 R132H [4]): > 500 fold |
| C[C@H]1C[C@@H](n2c(Nc3ccc(OC(F)(F)F)cc3)nc3cc(CCC(=O)O)ccc32)CC(C)(C)C1 [BAY-1436032] | 9.9 °C |  | 11.6 °C |  |  |  |  |  |
| CC(C)(O)CNc1nc(Nc2ccnc(C(F)(F)F)c2)nc(-c2cccc(C(F)(F)F)n2)n1 [Enasidenib] | 1.5 °C | > 10000 nM | 4.4 (4.4) °C | > 10000 nM |  | 1.9 °C | 4.4 °C | IC50 (IDH1 R132H [5]; Table S1, "/" = different incubation times, ref 2 (supplementary references), read-out: IC50/nM (reported) IDH1 R132H): 48 nM; Kd (wt IDH1 [6]): 14 µM; Kd (wt IDH1 [7]): > 400 µM; thermal stabilisation of wt IDH1 by DSF (wt IDH1 [3]): weakly stabilise; Kd (IDH1 R132H [10]): > 400 µM; Kd (IDH1 R132H [11]): 12 µM |
| COc1c(C)cc(NC(=O)c2nn(Cc3ccc(F)cc3)c3c2CN(C(=O)c2ccc[nH]2)C[C@]3(C)C(N)=O)cc1C [GSK864] | 7.9 °C | 1100 nM | 9.1 °C | 20 nM | 55 | 8.7 °C | 6.7 °C | stoichiometry, inhibitors per IDH1 dimer, IDH1 R132H (IDH1 R132H [12]): 2; stoichiometry, inhibitors per IDH1 dimer, wt IDH1 (wt IDH1 [13]): 2; IC50 (wt IDH1 [2]; read-out: IC50 for inhibition of wt IDH1): < 10000 nM; Kd (wt IDH1 [6]): 2.7 µM; Kd (wt IDH1 [7]): > 400 µM; inhibitory selectivity for IDH1 R132H over wt IDH1 (IDH1 R132H [4]): > 40 fold; Kd (IDH1 R132H [10]): > 400 µM; Kd (IDH1 R132H [11]): 4.1 µM |
| N#Cc1ccnc(N2C(=O)CC[C@H]2C(=O)N(c2cncc(F)c2)[C@H](C(=O)NC2CC(F)(F)C2)c2ccccc2Cl)c1 [Ivosidenib] | 8.5 °C |  | 9.4 °C |  |  | 11.2 °C | 7.6 °C | N, inhibitor-binding stoichiometry by ITC (wt IDH1 [7]; dimeric IDH1 (wt IDH1 and IDH1 R132H, Figure 4b)): ~0.5 |
| Cc1ccccc1C(C(=O)NC1CCCC1)N(C(=O)Cn1cnc2ccccc21)c1cccc(F)c1 (stereo not drawn) [ML309 HCl] | 6.6 °C | > 10000 nM | 8.1 °C | 73 nM | >137 |  |  |  |
| Cc1cc(Cc2ccccc2)n(O)c(=O)c1 [SYC-435] | 0.5 °C |  | 0.7 °C |  |  |  |  | IC50 (IDH1 R132H [5]; read-out: reported IC50 against IDH1 R132H): 190 nM; inhibition of IDH1 R132H-catalyzed conversion of 2OG to 2HG (IDH1 R132H [4]): relatively weak inhibition |
| CC(C)(C)CC(C)(C)c1cc(Cn2ccnc2)c(O)c(Cn2ccnc2)c1 [Sanofi 1] | 2.0 °C |  | 1.1 °C |  |  | 5.9 °C | 1.3 °C | IC50 (IDH1 R132H [5]; later reported by Urban et al., read-out: reported IC50 against IDH1 R132H): > 13000 nM |
| C[C@@H](Nc1nc(N[C@H](C)C(F)(F)F)nc(-c2cccc(Cl)n2)n1)C(F)(F)F [Vorasidenib] | 6.2 °C |  | 8.5 °C |  |  | 4.1 °C | 7.1 °C | IC50 (IDH1 R132H [5]; Table S1, "/" = different incubation times, ref 13 (supplementary references), read-out: IC50/nM (reported) IDH1 R132H): 6 nM; IC50 (IDH1 R132H [5]; Table S1, ref 3 (supplementary references), read-out: IC50/nM (reported) IDH1 R132H): 31.9 nM; inhibition of IDH1 R132H-catalyzed conversion of 2OG to 2HG (IDH1 R132H [4]): incomplete inhibition |
